Experimental data: ChEMBL document CHEMBL1138060, “3-arylimino-2-indolones are potent and selective galanin GAL3 receptor antagonists” (J Med Chem, 2006)
Active and inactive are the calls of the source. The rule behind the calls is not given here.

Tests used:
[1] = Drug level in rat plasma at 10 mg/kg, sc after 2 hrs; assay type: ADME, organism-based; design: dose 10 mg/kg, route subcutaneous
[2] = target: T1, 5-hydroxytryptamine receptor 4 (Homo sapiens, UniProt Q13639); assay: Agonist activity at human 5HT4 upto 10 uM; assay type: functional
[3] = Drug level in rat brain at 10 mg/kg, sc after 2 hrs; assay type: ADME, organism-based; design: dose 10 mg/kg, route subcutaneous; details: read-out: Drug uptake
[4] = Drug level in rat brain at 30 mg/kg, ip after 4 hrs; assay type: ADME, organism-based; design: dose 30 mg/kg, route intraperitoneal; details: read-out: Drug uptake
[5] = target: T1, 5-hydroxytryptamine receptor 4; assay: Binding affinity to human 5HT4
[6] = Drug level in rat plasma at 30 mg/kg, ip after 2 hrs; assay type: ADME, organism-based; design: dose 30 mg/kg, route intraperitoneal
[7] = Drug level in rat brain at 30 mg/kg, ip after 2 hrs; assay type: ADME, organism-based; design: dose 30 mg/kg, route intraperitoneal; details: read-out: Drug uptake
[8] = target: T1, 5-hydroxytryptamine receptor 4; assay: Antagonist activity against human 5HT4 upto 10 uM; assay type: functional
[9] = Drug level in rat plasma at 10 mg/kg, pp after 2 hrs; assay type: ADME, organism-based; design: dose 10 mg/kg
[10] = Drug level in rat plasma at 30 mg/kg, ip after 4 hrs; assay type: ADME, organism-based; design: dose 30 mg/kg, route intraperitoneal
Galanin receptor type 3 = target: T2, Galanin receptor type 3 (Homo sapiens, UniProt O60755); assay: Displacement of [125I]galanin from human GAL3
T2 sequence (O60755 whole entry): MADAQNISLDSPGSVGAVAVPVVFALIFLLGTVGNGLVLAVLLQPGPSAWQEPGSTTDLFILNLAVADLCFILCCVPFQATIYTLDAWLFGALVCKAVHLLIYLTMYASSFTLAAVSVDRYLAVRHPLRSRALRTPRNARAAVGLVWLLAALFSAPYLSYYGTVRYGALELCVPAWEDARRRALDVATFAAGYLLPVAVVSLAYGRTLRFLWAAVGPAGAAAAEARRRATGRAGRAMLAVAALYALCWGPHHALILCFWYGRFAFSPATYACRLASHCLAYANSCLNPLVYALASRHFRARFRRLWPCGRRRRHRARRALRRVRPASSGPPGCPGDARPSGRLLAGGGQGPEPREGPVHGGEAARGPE

T1 sequence (Q13639 whole entry): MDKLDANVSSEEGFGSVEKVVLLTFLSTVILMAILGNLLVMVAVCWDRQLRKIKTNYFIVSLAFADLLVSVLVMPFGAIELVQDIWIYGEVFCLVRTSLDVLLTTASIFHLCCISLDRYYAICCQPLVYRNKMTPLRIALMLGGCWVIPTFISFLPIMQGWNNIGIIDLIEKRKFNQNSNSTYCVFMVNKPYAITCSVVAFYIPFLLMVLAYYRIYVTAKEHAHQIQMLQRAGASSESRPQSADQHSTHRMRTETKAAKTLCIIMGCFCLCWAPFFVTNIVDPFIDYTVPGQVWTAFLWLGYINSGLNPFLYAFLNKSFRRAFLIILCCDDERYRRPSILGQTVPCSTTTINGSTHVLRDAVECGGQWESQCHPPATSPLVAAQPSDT

SMILES: O=C1/C(=N/c2cccc(C(F)(F)F)c2)c2ccccc2N1c1ccccc1
- concentration at 2 h [1]: 990 ng/mL
- Activity [2]: inactive
- concentration at 2 h [3]: 350 ng/g
- concentration at 4 h [4]: 1210 ng/g
- Ki [5]: 72 nM
- concentration at 2 h [6]: 780 ng/mL
- concentration at 2 h [7]: 1060 ng/g
- Activity [8]: inactive
- concentration at 2 h [9]: 90 ng/mL
- concentration at 4 h [10]: 1680 ng/mL

SMILES: O=C1Nc2ccccc2/C1=N\c1cccc(Cl)c1Cl
- Ki (Galanin receptor type 3): 437 nM

SMILES: CCC(CC)N1C(=O)/C(=N/c2ccc(C(F)(F)F)cc2)c2ccccc21
- Ki (Galanin receptor type 3): 52 nM

SMILES: C#CCN1C(=O)/C(=N/c2cccc(C(F)(F)F)c2)c2ccccc21
- Ki (Galanin receptor type 3): 89 nM

SMILES: C=CCN1C(=O)/C(=N/c2ccc(Cl)c(Cl)c2)c2ccccc21
- Ki (Galanin receptor type 3): 150 nM

SMILES: COc1ccc(/N=C2/C(=O)Nc3ccccc32)cc1
- Ki (Galanin receptor type 3): > 10000 nM

SMILES: O=C1Nc2ccccc2/C1=N\c1cccc(C(F)(F)F)c1
- Ki (Galanin receptor type 3): 596 nM

SMILES: O=C1Nc2ccccc2/C1=N\c1ccc(Cl)cc1
- Ki (Galanin receptor type 3): 850 nM
